Read-outs that look alike come from different tables or passages of the source.
Tests used:
[1] = molecular target: Yeast α-Glucosidase; assay: Yeast α-glucosidase activity assay; format: biochemical, S. cerevisiae; conditions: pH 6.8, 37 °C, p-nitrophenyl-α-D-glucopyranoside 1 mM; read-out: Yeast α-Glucosidase, IC50 ± SE
Description: (§1) Taken together, these considerations prompted us to evaluate a series of lupanes with amide function or polyamine chain 11, 12, 16, 18, and 22–26 for α-glucosidase inhibition. Initially, they were screened against α-glucosidase of S. cerevisiae as an accessible and high-throughput model. Confirmatory experiments were performed on isolated rough endoplasmic reticulum vesicles from rat liver, which contain neutral α-glucosidases I and II in a membrane-bound form.
In a 96-well flat transparent plate, the 0.12 U/mL enzyme solution (EC 3.2.1.20, expressed in S. cerevisiae, Sigma #G0660, St. Louis, MO, USA) was incubated with test compounds in 67 mM PBS (pH 6.8) at 37 °C for 5 min. Then, p-nitrophenyl-α-D-glucopyranoside (Sigma #N1377, St. Louis, MO, USA) was added to 1 mM final concentration and an increase in absorbance was recorded for 15 min at 405 nm wavelength with Infinite M200 PRO microplate reader (Tecan, Austria). Test compounds were dissolved in DMSO and diluted to the desired concentration in 67 mM PBS (pH 6.8) supplemented with 0.01% Tween 80 to avoid aggregation. Final DMSO concentration was <0.25% in sample wells, and it was also introduced in control and blank wells. […] Due to the absence of normal distribution of data, a Mann–Whitney U-test was used to determine statistical significance versus enzyme control using GraphPad Prism 8.0.1.

[2] = system: Rat Liver ER Neutral α-Glucosidase; assay: Endoplasmic reticulum α-glucosidase activity assay; format: biochemical
Text: as §1, with “Betulinic acid inhibits yeast α-glucosidase activity and interferes with N-linked glycan modifications to cell-surface intercellular adhesion molecule-1 (ICAM-1) in human lung carcinoma A549 cells in a similar manner to castanospermine, an inhibitor of endoplasmic reticulum α-glucosidases I and II [66]. […] Taken” for “Taken”
Endoplasmic reticulum was isolated from hepatocytes of decapitated male Sprague-Dawley rats, which were starved overnight and sacrificed the next morning. All experiments were approved by Volgograd regional ethic committee. The whole procedure was performed at 4 °C. In brief, a fresh tissue sample from an animal was washed twice with 10 mL of PBS to remove residual blood. The tissue was placed on a paper towel in order to absorb excess liquid and blood clots, if present. It was cut further into small pieces (1.5–2 cm) and washed once more. […] Homogenate was centrifuged at 1000× g for 10 min at 4 °C. After removal of the floating lipid layer by aspiration, supernatant was separated and centrifuged at 12,000× g for 15 min. at 4 °C. The supernatant fraction, which is the post mitochondrial fraction (PMF), was used for isolation of rough endoplasmic reticulum (RER) enriched microsomes by precipitation with 8 mM CaCl2 added dropwise. The final concentration of CaCl2 was 7 mM. Resulting sample was centrifuged at 8000 g for 10 min. at 4 °C. The supernatant was discarded, and the pellet was suspended in isotonic extraction buffer (0.3 mL of buffer for each g of original tissue). The suspension was homogenized completely to afford RER enriched microsomes. In a 96-well flat transparent plate 25 µL of the isolated RER microsomes were incubated with 50 µL of test compounds in 67 mM PBS (pH 6.8) at 37 °C for 10 min. Then, p-nitrophenyl-α-D-glucopyranoside (Sigma #N1377, St. Louis, MO, USA) was added to 1 mM final concentration and increase in absorbance was recorded for 42 min at 405 nm wavelength with Infinite M200 PRO microplate reader (Tecan, Austria). Concentration of RER microsomes was adjusted to achieve an increase in optical density of ~0.2 in control samples after 30 min. of incubation. Test compounds were prepared as described above for the yeast α-glucosidase assay.

[3] = system: methicillin-resistant Staphylococcus aureus (MRSA); assay: Antibacterial growth inhibition, S. aureus; format: cell-based; conditions: for inhibition at 32 µg/mL: Staphylococcus aureus, ATCC 43300 / MRSA, S. aureus Strain ATCC 43300
[4] = system: Escherichia coli; assay: Antibacterial growth inhibition, E. coli; format: cell-based; conditions: ATCC25922, E. coli Strain ATCC 25922
[5] = system: Klebsiella pneumonia; assay: Antibacterial growth inhibition, K. pneumonia; format: cell-based; conditions: Klebsiella pneumoniae, ATCC700603, K. pneumonia Strain ATCC 700603
[6] = system: Pseudomonas aeruginosa; assay: Antibacterial growth inhibition, P. aeruginosa; format: cell-based; conditions: P. aeruginosa Strain 19606
[7] = system: Acinetobacter baumannii; assay: Antibacterial growth inhibition, A. baumannii; format: cell-based; conditions: ATCC27853, A. baumannii Strain ATCC 27853
[8] = system: 60 human tumor cell lines; assay: cells
[9] = system: Candida albicans; assay: Antifungal growth inhibition, C. albicans; conditions: ATCC90028, read-out: % Growth inhibition
Description: (§2) The antifungal activity was determined against Candida albicans and Cryptococcus neoformans.
(§3) Samples were prepared in DMSO and water to a final testing concentration of 32 µg/mL, in 384-well, non-binding surface plate (NBS) for each bacterial/fungal strain, and in duplicate (n = 2) and keeping the final DMSO concentration to a maximum of 1% DMSO. All the sample-preparation was done using liquid handling robots.
(§4) Fungi strains were cultured for 3 days on Yeast Extract-Peptone Dextrose (YPD) agar at 30 °C. A yeast suspension of 1 × 10^6 to 5 × 10^6 CFU/mL (as determined by OD530) was prepared from five colonies. The suspension was subsequently diluted and added to each well of the compound-containing plates giving a final cell density of fungi suspension of 2.5 × 10^3 CFU/mL and a total volume of 50 µl. All plates were covered and incubated at 35 °C for 24 h without shaking.
(§5) The absorbance was measured using a Biotek Synergy HTX plate reader. The percentage of growth inhibition was calculated for each well, using negative control (media only) and positive control (fungi without inhibitors) on the same plate. The significance of the inhibition values was determined by modified Z-scores, calculated using the median and MAD of the samples (no controls) on the same plate. Samples with an inhibition value above 80% and Z-score above 2.5 for either replicate (n = 2 on different plates) were classed as actives. Samples with inhibition values between 50% and 80% and a Z-score above 2.5 for either replicate were classed as partial actives.

[10] = system: Cryptococcus neoformans; assay: Antifungal growth inhibition, C. neoformans; parameters: activity class in primary screening: dose or concentration left out as unconfirmed; conditions: for inhibition at 32 µg/mL: Cryptococcus neoformans, ATCC208821, read-out: % Growth inhibition
Description: as §2, §3, §4, §5

[11] = system: pathogenic microorganisms; assay: Primary antimicrobial screening, five bacterial strains and two fungi; parameters: dose or concentration left out as unconfirmed
Description: The antifungal activity was determined against Candida albicans and Cryptococcus neoformans. […] Samples with inhibition value above 80% were classed as actives. Samples with inhibition values between 50 and 80% were classed as partial actives.
as §3
All bacteria were cultured in cation-adjusted Mueller Hinton broth (CAMHB) at 37 °C overnight. A sample of each culture was then diluted 40-fold in fresh broth and incubated at 37 °C for 1.5–3 h. The resultant mid-log phase cultures were diluted (CFU/ ml measured by OD600), then added to each well of the compound containing plates, giving a cell density of 5 × 10^5 CFU/mL and a total volume of 50 µl. All the plates were covered and incubated at 37 °C for 18 h without shaking.
Inhibition of bacterial growth was determined measuring absorbance at 600 nm (OD600), using a Tecan M1000 Pro monochromator plate reader. The percentage of growth inhibition was calculated for each well, using negative control (media only) and positive control (bacteria without inhibitors) on the same plate as references. The significance of the inhibition values was determined by modified Z-scores, calculated using the median and MAD of the samples (no controls) on the same plate. Samples with inhibition value above 80% and Z-score above 2.5 for either replicate were classed as actives. […]
Fungi strains were cultured for 3 days on Yeast Extract-Peptone Dextrose (YPD) agar at 30 °C. A yeast suspension of 1 × 10^6 to 5 × 10^6 CFU/mL (as determined by OD530) was prepared from five colonies. […]
The absorbance was measured using a Biotek Synergy HTX plate reader. The percentage of growth inhibition was calculated for each well, using negative control (media only) and positive control (fungi without inhibitors) on the same plate. […]

[12] = system: SR; assay: NCI-60 SRB screen: leukemia SR; format: cell-based; conditions: Homo sapiens, 48 h, single dose 10 µM, read-out: Percentage Cell Growth

Row | SMILES | IC50 [1] | Rat Liver ER Neutral α-Glucosidase Inhibition, m ± SD ([2]; 10 μM) | Rat Liver ER Neutral α-Glucosidase Inhibition, m ± SD ([2]; 100 μM) | inhibition at 32 µg/mL [3] | inhibition at 32 µg/mL [4] | inhibition at 32 µg/mL [5] | inhibition at 32 µg/mL [6] | inhibition at 32 µg/mL [7] | activity at 10 µM ([8]; read-out: Mean Growth, %) | activity at 10 µM ([8]; read-out: Range of Growth, %) | inhibition at 32 µg/mL [9] | inhibition at 32 µg/mL [10] | inhibition of growth of pathogenic microorganisms [11] | activity at 10 µM [12] | activity class in primary screening ([3]; methicillin-resistant S. aureus, one concentration of 32 µg/mL) | activity class in primary screening ([10]; C. neoformans, one concentration)
1 | C=C(C)[C@@H]1CC[C@]2(C(=O)OC)CC[C@]3(C)[C@H](CC[C@@H]4[C@@]5(C)C/C(=C/NC(N)=S)C(=O)C(C)(C)[C@@H]5CC[C@]43C)[C@@H]12 [Compound 26] | > 100 µM | 11.63 ± 9.09% | 26.60 ± 13.03% | 12.7% | -7.03% | -3.89% | -4.64% | 28.2% | 90.5% | 60.9 to 126% | 5.83% | -13% | did not inhibit the growth | – | – | –
2 | C=C(C)[C@@H]1CC[C@]2(C(=O)NCCCNCCCN)CC[C@]3(C)[C@H](CC[C@@H]4[C@@]5(C)CCC(=O)C(C)(C)[C@@H]5CC[C@]43C)[C@@H]12 [Compound 16] | > 100 µM | 9.05 ± 6.68% | 14.94 ± 6.31% | – | – | – | – | – | 101% | 59.3 to 141% | – | – | – | – | – | –
3 | C=C(C)[C@@H]1CC[C@]2(C=NCCCNCCCCN)CC[C@]3(C)[C@H](CC[C@@H]4[C@@]5(C)CCC(=O)C(C)(C)[C@@H]5CC[C@]43C)[C@@H]12 [Compound 22] | > 100 µM | 31.42 ± 7.96 % | 58.52 ± 8.21 % | – | – | – | – | – | 102% | 80.5 to 123% | – | – | – | – | – | –
4 | C=C(C)[C@@H]1CC[C@]2(C(=O)OC)CC[C@]3(C)[C@H](CC[C@@H]4[C@@]5(C)C/C(=C/NC(N)=O)C(=O)C(C)(C)[C@@H]5CC[C@]43C)[C@@H]12 [Compound 25] | 53.3 ± 5.7 µM | 8.76 ± 9.63% | 9.62 ± 6.94% | 19.8% | -5.34% | 2.44% | -8.92% | 40.9% | 91.7% | 21.2 to 112% | 14% | -7.93% | did not inhibit the growth | 21.2% | – | –
5 | C=C(C)[C@@H]1CC[C@]2(C(=O)N3CCCNCC3)CC[C@]3(C)[C@H](CC[C@@H]4[C@@]5(C)CCC(=O)C(C)(C)[C@@H]5CC[C@]43C)[C@@H]12 [Compound 2, 28-(1,4-Diazepan-1-yl)-28-oxolup-20(29)-en-3-one] | – | – | – | 40.3% | 1.96% | 0.98% | 8.34% | 33.1% | 89.5% | 8.04 to 127% | 4.14% | -5.9% | did not inhibit the growth | 8.04% | – | –
6 | C=C(C)[C@@H]1CC[C@]2(C(=O)NCCNCCN)CC[C@]3(C)[C@H](CC[C@@H]4[C@@]5(C)CCC(=O)C(C)(C)[C@@H]5CC[C@]43C)[C@@H]12 [Compound 12] | > 100 µM | 10.21 ± 3.49% | 23.59 ± 1.34 % | 71.8% | -9.57% | 9.2% | 7.72% | 19.5% | 98.9% | 59.1 to 141% | 11.7% | 62.6% | – | – | partial activity | partial activity
7 | C=C(C)[C@@H]1CC[C@]2(C=NCCCNCCCCN)CC[C@]3(C)[C@H](CC[C@@H]4[C@@]5(C)CCCNC(C)(C)[C@@H]5CC[C@]43C)[C@@H]12 [Compound 24] | > 100 µM | 26.96 ± 2.33 % | 54.62 ± 15.38 % | – | – | – | – | – | 93.6% | 21.7 to 132% | – | – | – | 21.7% | – | –
